Read-outs that look alike come from different tables or passages of the source.
Tests used:
[1] = humans; ref 14 (Wijnands et al.); cited from earlier work
[2] = tested on: CYP1A; conditions: hepatic microsomes from Beagles; ref 13 (Regmi et al.); cited from earlier work
[3] = healthy cattle, oral administration; ref 8 (Sawaguchi et al.); cited from earlier work
[4] = rats, intramuscular injection; ref 9 (Yamasaki et al.); cited from earlier work
[5] = p-acetaminophen injected into porcine animals; ref 7 (Qiu et al.); cited from earlier work
[6] = Pharmacokinetics of p-acetaminophen in Bactrian camels, substrate only; assay type: in vivo, Bactrian camel; conditions: Group 1, substrate only, 4 mg/kg intramuscular
[7] = tested on: CYP1A enzyme; assay type: in vivo, Bactrian camel; conditions: Group 2, inhibitor (lomefloxacin) + substrate; p-acetaminophen 4 mg/kg intramuscular

SMILES: CCn1cc(C(=O)O)c(=O)c2cc(F)c(N3CCNCC3)nc21 [enoxacin]
- effect on total body clearance of theophylline [1]: significantly decreased

SMILES: CCN1CCN(c2cc3c(cc2F)c(=O)c(C(=O)O)cn3C2CC2)CC1 [enrofloxacin]
- CYP1A-inhibiting effect [2]: inhibited CYP1A in a non-competitive manner

SMILES: CCn1cc(C(=O)O)c(=O)c2cc(F)c(N3CCNCC3)cc21 [norfloxacin]
- CYP1A-inhibiting effect [2]: inhibited CYP1A in a non-competitive manner

SMILES: CC1COc2c(N3CCN(C)CC3)c(F)cc3c(=O)c(C(=O)O)cn1c23 (centres unmarked) [ofloxacin]
- CYP1A-inhibiting effect [2]: inhibited CYP1A in a non-competitive manner

SMILES: C[C@@H]1CN(c2c(F)c(F)c3c(=O)c(C(=O)O)cn(C4CC4)c3c2F)C[C@H](C)N1 [orbifloxacin]
- CYP1A-inhibiting effect [2]: inhibited CYP1A in a non-competitive manner

SMILES: CC(=O)Nc1ccc(O)cc1 [p-acetaminophen]
- MRT [3]: 4.70 ± 0.93 h
- T1/2 [3]: 2.41 ± 0.58 h
- Tmax [3]: 1.40 ± 0.55 h
- MRT [4]: 0.40 ± 0.03 h
- T1/2 [4]: 0.30 ± 0.02 h
- AUC0-t [5]: 23.95 ± 6.98 µg·h/mL
- T1/2 [5]: 1.76 ± 0.91 h
- Tmax [5]: 0.41 ± 0.13 h
- Vd (volume of distribution under steady-state) [6]: 4,416.8 ± 138.23 mL/kg
- AUC0-t ([6]; plasma): 5.73 ± 0.31 µg·h/mL
- AUC0-∞ ([6]; plasma): 6.01 ± 0.63 µg·h/mL
- Cmax ([6]; plasma): 0.96 ± 0.43 µg/mL
- Tmax ([6]; plasma): 1.70 ± 0.51 h
- AUC0-t [7]: 8.88 ± 0.23 µg·h/mL
- AUC0-∞ [7]: 9.15 ± 0.63 µg·h/mL
- Cmax [7]: 1.22 ± 0.66 µg/mL
- Tmax [7]: 0.833 ± 0.37 h
- Vd (volume of distribution under steady-state) [7]: 3,934.0 ± 90.03 mL/kg

Reference: article PMC6538516 (Journal of Veterinary Science, 2019)
